In EP0518769B1, “Ethanolaminebenzoate derivative, process for their preparation and pharmaceutical compositions containing them” (ADIR ET COMPAGNIE, priority 1991, dated 1992):

How the values were obtained:
[1] = system: Rats SDCD mâles de 52 semaines; test: Chronic per os treatment (14 days, twice daily) in the male SDCD rat aged 52 weeks; assay type: in vivo; details: 0,5 mg/kg×2 per os, vs Contrôle 1,1 ± 0,14 g/l
Source text: Les essais sont réalisés sur des rats qui présentent des anomalies pondérales associées à un hyperinsulisme et une hyperglycéridémie.
Il est recherché : • d'une part l'effet d'un traitement prolongé du produit de l'exemple 1 et de substances de référence sur ces anomalies, et • d'autre part, la consommation du glucose par le tissu adipeux est mesuré à l'état basal et en présence d'insuline (10⁻⁹ M).
On utilise des rats identiques à ceux de l'étude du traitement aigu, (cf. ci-dessus le paragraphe A- 2.1), à savoir des rats SDCD mâles agés de 52 semaines.
9 jours avant le début de l'expérimentation (J₋₉), sont constitués des lots de rats par randomisation stratifiée sur le poids.
5 jours avant le début de l'expérimentation (J₋₅), les rats sont conditionnés par administration d'une solution de gomme.
Le premier jour de l'expérimentation (J₁), les produits à tester sont administrés à différentes doses aux rats 2 fois par jour. Plus précisémment, les produits sont administrés en suspension dans la gomme entre 9 et 10 heures et 16-17 heures pendant 14 jours. Une pesée quotidienne des animaux traités est effectuée.
Le 15ème jour, les rats (à jeun depuis 18 heures) sont sacrifiés par décapitation. Le sang est recueilli directement dans une cupule. Un aliquote (50 µl) est transféré dans 500 µl d'acétate d'uranyl pour dosage de la glycémie. […]

[2] = system: Rats SDCD mâles 52 semaines; test: Acute treatment by portal perfusion in the conscious rat, with IVGTT; assay type: in vivo; details: 0,25 µg/kg/min×60 min intraportal perfusion; vs Contrôle 57,4 ± 13,7 µU/ml
Source text: La technique de perfusion portale chez le rat vigile permet d'étudier l'effet de substances pharmacologiques sur les modifications de la tolérance au glucose adminstré par voie intraveineuse.
L'injection d'agents directement dans la circulation portale permet d'éviter les effets du transit gastrique, d'absorption et de libération d'hormone par la paroi intestinale et ainsi d'explorer : • soit un effet direct sur le tissu hépatique, • soit l'existence d'un relai foie-système nerveux central-tissu périphérique (foie, muscle ou cible endocrine).
Dans cette expérimentation, on a utilisé des rats mâles adultes SPRAGUE DAWLEY par lots de 5 à 12 rats.
Les rats utilisés, agés de 52 semaines, présentent • une diminution de la tolérance au glucose, • une augmentation de l'insulinémie basale, et • une augmentation des lipides plasmatiques.
La stabulation (de 9 à 52 semaines) de ces rats a été réalisée dans une pièce à température régulée de 21 à 22 °C et soumise à un cycle fixe de lumière (de 7 h 30 à 19 h 30) et d'obscurité (de 19 h 30 à 7 h 30). Leur alimentation a consisté en un régime d'entretien (UAR A 03); eau et nourriture ont été fournies "ad libitum", à l'exception du jeûne nocturne précédant les tests où la nourriture était retirée. […]

[3] = system: rats agés de 12 semaines, insulinorésistance induite par l'amyline; test: Insulin resistance induced by intraportal amylin perfusion, with IVGTT; assay type: in vivo, rat; details: Perfusion amyline + 0,75µg/kg/min pendant 60 mn
Source text: A J₇ avant le début de l'expérimentation, les rats sont anesthésiés à la kétamine (IMALGENE 1000 - Rhône MERIEUX), et un cathéter en silastic (602-135, médical grade, DOW CORNING MIDLAND) est implanté dans la veine porte hépatique [cf. Strubbe J.H., Wolsink J.G., Schutte A.M., Balkan B., and Prins A.J.A. : Hepatic-portal and cardiac infusion of CKK-8 and glucagon induce different effects on feeding. Physiology and Behavior 46,643-646 (1989)] pour la perfusion du soluté physiologique (jour contrôle) puis du produit à tester. Ils sont alors placés individuellement dans des cages en plexiglas. • Après récupération, soit environ 10 jours plus tard, un second cathéter en silastic (602-155, médical grad, DOW CORNING MIDLAND) est introduit jusque dans l'oreillette droite par la veine jugulaire droite [cf. Steffens A.B : A Method for frequent sampling of blood and continuous infusion of fluids in the rat without disturbing the animal. Physiology and behavior 4, 833-836 (1969)]. Lors des test, les différents prélèvements sanguins et l'injection intra-cardiaque du bolus glucosé seront effectués à l'aide de ce cathéter. Pendant les deux interventions chirurgicales, les cathéters sont glissés sous la peau et extériorisés au-dessus de la tête au moyen d'une aiguille limée recourbée et bouchée par un capuchon de polyéthylène (PE) fermé à la bougie. • 0,4 ml d'une solution d'héparine à 500 U/ml (ROUSSEL UCLAF) suivie de 0,1 ml de PVP (Solution de Polyvinylpyrrolidone à 30 % - PM 25000 - MERCK) sont introduits dans les cathéters avant la fermeture par le capuchon de polyéthylène. La viscosité du PVP permet d'éviter un reflux du sang dans le cathéter. • La veille de chaque expérience, les rats sont soumis à un jeûne nocturne de 18 heures. Le jour de l'expérience, ces rats sont pesés et le bon fonctionnement des cathéters vérifié. • Afin d'éliminer le stress du branchement des cathéters sur les aiguilles extériorisées sur le dessus de la tête, 20 minutes de repos sont nécessaires avant de commencer l'expérience. • Les perfusions intraportales, réalisées à l'aide d'un cathéter en polyéthylène N° 3 durent 60 minutes; elles ont un débit constant de 2 ml/heure soit envirion 0,033 ml/minute, assuré par un perfuseur BRAUN. […]

LDL [4] = test: LDL oxidation in vitro by monocytes; assay type: cell-based; details: à 10⁻⁴ M
Source text: (§1) Une étude comparative entre le produit de l'exemple 1 et les substances de référence (Benfluorex, Diméthylbiguanide) sur l'oxydation des LDL in vitro a été réalisée.

LDL [5] = test: LDL oxidation in vitro by copper; assay type: biochemical; details: à 10⁻⁴ M
Source text: as §1

| SMILES | Cholestérol variation % [1] [%] | Insulinémie au pic Variation % [2] [%] | Tolérance au glucose K.10^-2 ([3]; Controle 3,54±0,24, amyline alone 1,71±0,27) | Insulinémie basale ([3]; Controle 5,93±0,48, amyline alone 6,87±0,77) | Insulinémie 24 min après glucose ([3]; Controle 8,86±0,77, amyline alone 15,28±1,90) | Insulinémie au pic ([3]; Controle 24,80±1,86, amyline alone 23,54±1,7) | Oxydation des LDL in vitro par les monocytes (LDL [4]) | Oxydation des LDL in vitro par le cuivre (LDL [5]) |
| --- | --- | --- | --- | --- | --- | --- | --- | --- |
| COC(CNCCOC(=O)c1ccc(CCNC(=O)CC2c3ccccc3-c3ccccc32)cc1)c1cccc(C(F)(F)F)c1 (single isomer, unassigned) [Exemple 1, Isomère lévogyre du chlorhydratede para-[2-(α-fluorén-9-ylacétylamino) éthyl] benzoatede 2-[(β-méthoxy β-métatrifluorométhylphényl) éthylamino] éthyle] | 0 | 0 | 3,79±0,38 | 8,26±1,15 µU/ml | 15±1,86 µU/ml | 23,60±2,17 µU/ml | – | – |
| CC(Cc1cccc(C(F)(F)F)c1)NCCOC(=O)c1ccccc1 (stereo not drawn) [Benfluorex, 1-(3-trifluorométhylphényl)-2-(β-benzoyloxyéthyl)aminopropane] | – | – | – | – | – | – | Inactif à 10⁻⁴ M | Inactif à 10⁻⁴ M |
